Experimental data: the supplement of paper PMC13380429

Experiments:
[1] = tested on: A549-ACE2 infected with SARS-CoV-2; assay: morphology score (similarity to uninfected cells); higher = more like uninfected cells; conditions: 24 h
[2] = tested on: A549-ACE2 infected with SARS-CoV-2; assay: cell count relative to DMSO; higher = less toxic; conditions: 24 h
[3] = tested on: U2OS; assay: relative viability EC50 (midpoint between 100% and the lowest measured viability); higher = less toxic; conditions: 72 h
[4] = tested on: HepG2; assay: as above; conditions: 72 h
[5] = tested on: Caco-2; assay: as above; conditions: 72 h
[6] = tested on: Calu-3; assay: as above; conditions: 72 h
[7] = tested on: Vero E6; assay: as above; conditions: 72 h
[8] = tested on: U2OS; assay: cell viability relative to DMSO; higher = less toxic; conditions: 72 h
[9] = tested on: HepG2; assay: as above; conditions: 72 h
[10] = tested on: Caco-2; assay: as above; conditions: 72 h
[11] = tested on: Calu-3; assay: as above; conditions: 72 h
[12] = tested on: Vero E6; assay: as above; conditions: 72 h
[13] = tested on: U2OS; assay: drug sensitivity score (DSS) for viability; higher = more toxic; extreme values may be limits of the assay; conditions: 72 h
[14] = tested on: HepG2; assay: as above; conditions: 72 h
[15] = tested on: Caco-2; assay: as above; conditions: 72 h
[16] = tested on: Calu-3; assay: as above; conditions: 72 h
[17] = tested on: Vero E6; assay: as above; conditions: 72 h
[18] = tested on: A549-ACE2; assay: drug-induced phospholipidosis relative to tamoxifen; higher = more phospholipidosis
[19] = tested on: A549-ACE2 infected with SARS-CoV-2; assay: SARS-CoV-2 infection rate relative to DMSO; higher = more infection; conditions: 24 h
[20] = tested on: A549-ACE2; assay: phospholipidosis EC50; higher = less potent phospholipidosis inducer

CC(C)C[C@H](NC(=O)[C@H](CCc1ccccc1)NC(=O)CN1CCOCC1)C(=O)N[C@@H](Cc1ccccc1)C(=O)N[C@@H](CC(C)C)C(=O)[C@@]1(C)CO1 [carfilzomib]
morphology score ([1]; 0.1 µM): 0.25
morphology score ([1]; 0.3 µM): 0.29
morphology score ([1]; 1 µM): 0.25
morphology score ([1]; 3 µM): 0.18
cell count ([2]; 0.1 µM): 69%
cell count ([2]; 0.3 µM): 49%
cell count ([2]; 1 µM): 34%
cell count ([2]; 3 µM): 26%
relative viability EC50 [3]: 16.1 nM
relative viability EC50 [4]: 18 nM
relative viability EC50 [5]: 9.3 nM
relative viability EC50 [6]: 26.7 nM
relative viability EC50 [7]: 112 nM
cell viability ([8]; 1 nM): 96%
cell viability ([8]; 10 nM): 76.7%
cell viability ([8]; 100 nM): 0.4%
cell viability ([8]; 1000 nM): -0.5%
cell viability ([8]; 10000 nM): -0.3%
cell viability ([9]; 1 nM): 94.6%
cell viability ([9]; 10 nM): 68.8%
cell viability ([9]; 100 nM): 9%
cell viability ([9]; 1000 nM): -0.4%
cell viability ([9]; 10000 nM): -0.3%
cell viability ([10]; 1 nM): 91.9%
cell viability ([10]; 10 nM): 50.8%
cell viability ([10]; 100 nM): 8.6%
cell viability ([10]; 1000 nM): 4.4%
cell viability ([10]; 10000 nM): 6%
cell viability ([11]; 1 nM): 104%
cell viability ([11]; 10 nM): 91.2%
cell viability ([11]; 100 nM): 5.8%
cell viability ([11]; 1000 nM): 4.3%
cell viability ([11]; 10000 nM): 1.7%
cell viability ([12]; 1 nM): 100%
cell viability ([12]; 10 nM): 97.6%
cell viability ([12]; 100 nM): 55.4%
cell viability ([12]; 1000 nM): 5.3%
cell viability ([12]; 10000 nM): 2.3%
drug sensitivity score [13]: 34.1
drug sensitivity score [14]: 32.8
drug sensitivity score [15]: 34.7
drug sensitivity score [16]: 30.9
drug sensitivity score [17]: 22.6
drug-induced phospholipidosis ([18]; 0.3 µM, 24 h): -37.6%
SARS-CoV-2 infection rate ([19]; 0.1 µM): 51%
SARS-CoV-2 infection rate ([19]; 0.3 µM): 24%
SARS-CoV-2 infection rate ([19]; 1 µM): 22%
SARS-CoV-2 infection rate ([19]; 3 µM): 20%

CCN(CC)CCOc1ccc(/C(=C(\Cl)c2ccccc2)c2ccccc2)cc1 [clomifene]
morphology score ([1]; 0.1 µM): -0.09
morphology score ([1]; 0.3 µM): 0.35
morphology score ([1]; 1 µM): 0.5
morphology score ([1]; 3 µM): 0.8
phospholipidosis EC50 ([20]; 24 h): 972 nM
phospholipidosis EC50 ([20]; 48 h): 3000 nM
phospholipidosis EC50 ([20]; 72 h): 4750 nM
cell count ([2]; 0.1 µM): 101%
cell count ([2]; 0.3 µM): 106%
cell count ([2]; 1 µM): 113%
cell count ([2]; 3 µM): 117%
relative viability EC50 [3]: > 10000 nM
relative viability EC50 [4]: 2750 nM
relative viability EC50 [6]: 2270 nM
relative viability EC50 [7]: > 10000 nM
cell viability ([8]; 1 nM): 96.1%
cell viability ([8]; 10 nM): 99.4%
cell viability ([8]; 100 nM): 96.3%
cell viability ([8]; 1000 nM): 103%
cell viability ([8]; 10000 nM): 79.3%
cell viability ([9]; 1 nM): 90.5%
cell viability ([9]; 10 nM): 89.9%
cell viability ([9]; 100 nM): 105%
cell viability ([9]; 1000 nM): 96%
cell viability ([9]; 10000 nM): 26.5%
cell viability ([10]; 1 nM): 84.4%
cell viability ([10]; 10 nM): 100%
cell viability ([10]; 100 nM): 99.1%
cell viability ([10]; 1000 nM): 96.4%
cell viability ([10]; 10000 nM): 61.1%
cell viability ([11]; 1 nM): 100%
cell viability ([11]; 10 nM): 101%
cell viability ([11]; 100 nM): 102%
cell viability ([11]; 1000 nM): 90.4%
cell viability ([11]; 10000 nM): 10.8%
cell viability ([12]; 1 nM): 94.7%
cell viability ([12]; 10 nM): 95.5%
cell viability ([12]; 100 nM): 91.9%
cell viability ([12]; 1000 nM): 101%
cell viability ([12]; 10000 nM): 77.4%
drug sensitivity score [13]: 0.5
drug sensitivity score [14]: 4.6
drug sensitivity score [15]: 2.5
drug sensitivity score [16]: 6.5
drug sensitivity score [17]: 0.7
drug-induced phospholipidosis ([18]; 0.3 µM, 24 h): 9.43%
drug-induced phospholipidosis ([18]; 0.3 µM, 48 h): 7.92%
drug-induced phospholipidosis ([18]; 0.3 µM, 72 h): 9.07%
drug-induced phospholipidosis ([18]; 0.833333 µM, 24 h): 34.4%
drug-induced phospholipidosis ([18]; 0.833333 µM, 48 h): 29.7%
drug-induced phospholipidosis ([18]; 0.833333 µM, 72 h): 23.5%
drug-induced phospholipidosis ([18]; 3.33333 µM, 24 h): 86%
drug-induced phospholipidosis ([18]; 3.33333 µM, 48 h): 72.8%
drug-induced phospholipidosis ([18]; 3.33333 µM, 72 h): 62.7%
drug-induced phospholipidosis ([18]; 6.66667 µM, 24 h): 104%
drug-induced phospholipidosis ([18]; 6.66667 µM, 48 h): 101%
drug-induced phospholipidosis ([18]; 6.66667 µM, 72 h): 94.3%
drug-induced phospholipidosis ([18]; 10 µM, 24 h): 115%
drug-induced phospholipidosis ([18]; 10 µM, 48 h): 120%
drug-induced phospholipidosis ([18]; 10 µM, 72 h): 144%
drug-induced phospholipidosis ([18]; 30 µM, 24 h): 47.6%
SARS-CoV-2 infection rate ([19]; 0.1 µM): 102%
SARS-CoV-2 infection rate ([19]; 0.3 µM): 84%
SARS-CoV-2 infection rate ([19]; 1 µM): 75%
SARS-CoV-2 infection rate ([19]; 3 µM): 31%
